Here are results for 1 substance from patent US20200268705A1, “CABAZITAXEL COMPOSITION FOR INJECTION AND PREPARATION METHOD THEREFOR” (BIKA BIOTECHNOLOGY (GUANGZHOU) CO., LTD., priority 2018, published 2020).

A value given as a limit tells only on which side of the number the result lay.

Series [1] in a line: Solubility of cabazitaxel in PEG300/SBE-β-CD/PVPK12/water solution system with additives. As to conditions: 700 mg/ml PEG300, 290 mg/ml SBE-β-CD, 80 mg/ml PVPK12, water, nitrogen. The class given is physicochemical. The source says:
In view of various defects of the prior art, the inventor of the present application breaks through the prejudice of the prior art, conducts reverse experiments on existing knowledge, reduces the amount of cyclodextrin and abandons the use of ethanol having strong stimulation as a solvent and Tween 80 having side effects.

The conditions of series [2]: cited from earlier work.
Series [3] can be described thus: Solubility of cabazitaxel in 40% SBE-β-CD aqueous solution. The class given is physicochemical. The following applies: found by the present inventors. The text has this: Cyclodextrin, a pharmaceutical excipient, has a hollow hydrophobic, stereoscopic chiral inner cavity; due to its structural characteristic of “inner hydrophobic, external hydrophilic”, it can encapsulate a variety of small organic molecules (substrates) having suitable space size to form a noncovalent host-guest complex (inclusion complex). Its most significant pharmaceutical function is to increase the water solubility of poorly soluble drugs and improve the stability of drugs. For example, the invention application No. CA2900508A1 (US20150325321A1) by Valery Alakhov et al. disclosed a composition comprising cabazitaxel and suifobutyl ether beta cyclodextrin (SBF-β-CD) in a weight ratio of 1:30 to 1:1000. […] Even if it can reach such concentration, it is difficult to prepare a cabazitaxel injection that meets the concentration specifications of commercial preparations.

Take “(1S,2S,3R,4S,7R,9S,10S,12R,15S)-4-acetyloxy-15-{[(2R,3S)-3-{[(tertbutoxy)carbonylamino]}-2-hydroxy-3-phenylpropanoyl]oxy}-1-hydroxy-9, 12-dimethoxy-10,14,17,17-tetramethyl-11-oxo-6-oxatetracyclo[11.3.1.0^3:10.0^4:7]heptadec-13-ene-2-yl benzoate [cabazitaxel]”: the figures for the solubility of cabazitaxel in series [1] and in series [3] were at least 40 mg/mL and “about 1 mg/mL”, respectively. Moreover, the “stability under alkaline conditions” value in series [2] (alkaline conditions) is “unstable under alkaline conditions”. Further, the solubility in ethanol entry in series [2] (ethanol) is given as “soluble in ethanol”. In series [2] (water), the solubility in water result is recorded as “almost insoluble in water”.
